Test results taken from ChEMBL document CHEMBL5325465, “Identification of small-molecule inhibitors of human MUS81-EME1/2 by FRET-based high-throughput screening” (Bioorg Med Chem, 2023).
Active and inactive are the calls of the source. The calls are words filed in the database; no cut-off is given here.

Assays:
[1] = system: HeLa; experiment: Inhibition of bleomycin-induced DNA-double stranded breaks in human HeLa cells assessed as reduction in gammaH2AX phosphorylation at serine 139 residue at 20 uM incubated for 1 hr by hoechst 33342 staining based immunofluorescence microscopic analysis; type: functional, cell-based
[2] = system: HeLa; experiment: Chemosensitivity of cisplatin-treated human HeLa cells assessed as reduction in cell viability at 0.1 to 100 uM incubated for 24 hrs CCK-8 assay; type: functional, cell-based; details: dose 0.1-100 µM
[3] = system: HepG2; experiment: Chemosensitivity of cisplatin-treated human HepG2 cells assessed as reduction in cell viability at 0.1 to 100 uM incubated for 24 hrs CCK-8 assay; type: functional, cell-based; details: dose 0.1-100 µM
[4] = molecular target: T1, MUS81-ECE2 (Homo sapiens, UniProt P0DPD6+Q96NY9); experiment: Binding affinity to human GST-tagged MUS81-[…] expressed in Escherichia coli BL21(DE3)Rosetta2 cells assessed as dissociation constant by Surface plasmon resonance analysis
T1 sequence (P0DPD6 whole entry): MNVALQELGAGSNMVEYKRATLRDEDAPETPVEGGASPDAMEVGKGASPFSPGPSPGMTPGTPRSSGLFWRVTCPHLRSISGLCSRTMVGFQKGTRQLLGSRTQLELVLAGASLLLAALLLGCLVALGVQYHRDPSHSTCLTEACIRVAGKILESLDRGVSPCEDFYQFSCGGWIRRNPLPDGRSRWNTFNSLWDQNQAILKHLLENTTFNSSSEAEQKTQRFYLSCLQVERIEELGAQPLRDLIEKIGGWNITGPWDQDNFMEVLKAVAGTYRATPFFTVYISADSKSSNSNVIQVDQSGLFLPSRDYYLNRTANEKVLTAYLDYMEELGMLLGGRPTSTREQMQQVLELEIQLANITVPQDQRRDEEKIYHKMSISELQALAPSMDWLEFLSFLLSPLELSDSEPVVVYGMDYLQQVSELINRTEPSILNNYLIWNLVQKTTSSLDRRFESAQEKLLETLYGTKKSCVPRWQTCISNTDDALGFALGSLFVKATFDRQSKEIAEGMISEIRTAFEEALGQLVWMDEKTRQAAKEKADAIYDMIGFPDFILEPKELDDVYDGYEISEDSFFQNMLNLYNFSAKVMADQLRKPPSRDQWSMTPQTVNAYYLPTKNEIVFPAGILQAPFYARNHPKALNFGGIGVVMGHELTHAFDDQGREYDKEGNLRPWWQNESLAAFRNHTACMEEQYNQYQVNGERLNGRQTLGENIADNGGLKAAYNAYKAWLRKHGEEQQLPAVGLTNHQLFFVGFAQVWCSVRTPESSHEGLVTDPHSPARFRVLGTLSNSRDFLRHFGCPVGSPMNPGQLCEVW
T1 sequence (Q96NY9 whole entry): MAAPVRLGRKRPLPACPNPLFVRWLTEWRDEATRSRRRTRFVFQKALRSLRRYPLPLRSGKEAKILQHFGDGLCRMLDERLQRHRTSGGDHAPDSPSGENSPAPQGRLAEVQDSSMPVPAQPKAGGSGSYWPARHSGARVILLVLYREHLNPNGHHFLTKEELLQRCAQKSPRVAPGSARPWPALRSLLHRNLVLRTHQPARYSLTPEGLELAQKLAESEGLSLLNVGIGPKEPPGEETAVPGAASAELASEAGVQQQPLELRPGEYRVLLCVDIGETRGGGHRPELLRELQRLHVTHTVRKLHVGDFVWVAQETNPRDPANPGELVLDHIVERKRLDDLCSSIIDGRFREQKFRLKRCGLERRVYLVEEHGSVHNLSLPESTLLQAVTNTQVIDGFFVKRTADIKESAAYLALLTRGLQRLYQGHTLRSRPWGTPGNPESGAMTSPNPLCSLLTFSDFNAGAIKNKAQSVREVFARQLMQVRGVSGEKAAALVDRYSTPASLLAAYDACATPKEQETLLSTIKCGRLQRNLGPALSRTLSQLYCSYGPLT

[5] = system: HeLa; experiment: Inhibition of bleomycin-induced DNA-double stranded breaks in human HeLa cells assessed as reduction in gammaH2AX level by Western blot analysis; type: functional, cell-based
[6] = molecular target: T2, MUS81-ECE1 (Homo sapiens) (UniProt P42892+Q96NY9); experiment: Inhibition of human GST-tagged MUS81-[…] expressed in Escherichia coli BL21(DE3)Rosetta2 cells using 3' FLAP as substrate incubated for 15 mins by FRET based assay; details: dose 0.2-20 µM
[7] = system: HepG2; experiment: Chemosensitivity of bleomycin-treated human HepG2 cells assessed as reduction in cell viability at 0.1 to 100 uM incubated for 24 hrs CCK-8 assay; type: functional, cell-based; details: dose 0.1-100 µM
[8] = molecular target: T1, MUS81-ECE2; experiment: Inhibition of human GST-tagged MUS81-[…] expressed in Escherichia coli BL21(DE3)Rosetta2 cells incubated for 15 mins by FRET based assay
[9] = system: HeLa; experiment: Chemosensitivity of bleomycin-treated human HeLa cells assessed as reduction in cell viability at 0.1 to 100 uM incubated for 24 hrs CCK-8 assay; type: functional, cell-based; details: dose 0.1-100 µM
[10] = molecular target: T3, MUS81-ECE2 (Homo sapiens) (UniProt P0DPD6+Q96NY9); experiment: Binding affinity to human GST-tagged MUS81-[…] expressed in Escherichia coli BL21(DE3)Rosetta2 cells assessed as Kon by Surface plasmon resonance analysis
[11] = system: MDA-MB-231; experiment: Chemosensitivity of cisplatin-treated human MDA-MB-231 cells assessed as reduction in cell viability at 0.1 to 100 uM incubated for 24 hrs CCK-8 assay; type: functional, cell-based; details: dose 0.1-100 µM
[12] = molecular target: T2, MUS81-ECE1 (Homo sapiens); experiment: Inhibition of human GST-tagged MUS81-[…] expressed in Escherichia coli BL21(DE3)Rosetta2 cells using nDS as substrate incubated for 15 mins by FRET based assay; details: dose 0.2-20 µM
[13] = molecular target: T2, MUS81-ECE1 (Homo sapiens); experiment: Binding affinity to human GST-tagged MUS81-[…] expressed in Escherichia coli BL21(DE3)Rosetta2 cells at more than 5 uM using nDS as substrate incubated for 30 mins by electrophoretic mobility shift assay
[14] = molecular target: T3, MUS81-ECE2 (Homo sapiens); experiment: Inhibition of human GST-tagged MUS81-[…] expressed in Escherichia coli BL21(DE3)Rosetta2 cells using 3' FLAP as substrate incubated for 15 mins by FRET based assay; details: dose 0.2-20 µM
[15] = molecular target: T3, MUS81-ECE2 (Homo sapiens); experiment: Binding affinity to human GST-tagged MUS81-[…] expressed in Escherichia coli BL21(DE3)Rosetta2 cells assessed as Koff by Surface plasmon resonance analysis
[16] = molecular target: T3, MUS81-ECE2 (Homo sapiens); experiment: Inhibition of human GST-tagged MUS81-[…] expressed in Escherichia coli BL21(DE3)Rosetta2 cells using nHJ as substrate incubated for 15 mins by FRET based assay; details: dose 0.2-20 µM
[17] = molecular target: T2, MUS81-ECE1 (Homo sapiens); experiment: Binding affinity to human GST-tagged MUS81-[…] expressed in Escherichia coli BL21(DE3)Rosetta2 cells assessed as Kon by Surface plasmon resonance analysis
[18] = molecular target: T2, MUS81-ECE1 (Homo sapiens); experiment: Binding affinity to human GST-tagged MUS81-[…] expressed in Escherichia coli BL21(DE3)Rosetta2 cells assessed as Koff by Surface plasmon resonance analysis
[19] = system: MDA-MB-231; experiment: Chemosensitivity of bleomycin-treated human MDA-MB-231 cells assessed as reduction in cell viability at 0.1 to 100 uM incubated for 24 hrs CCK-8 assay; type: functional, cell-based; details: dose 0.1-100 µM
[20] = molecular target: T3, MUS81-ECE2 (Homo sapiens); experiment: Inhibition of human GST-tagged MUS81-[…] expressed in Escherichia coli BL21(DE3)Rosetta2 cells using nDS as substrate incubated for 15 mins by FRET based assay; details: dose 0.2-20 µM
[21] = molecular target: T2, MUS81-ECE1 (Homo sapiens); experiment: Inhibition of human GST-tagged MUS81-[…] expressed in Escherichia coli BL21(DE3)Rosetta2 cells using nHJ as substrate incubated for 15 mins by FRET based assay; details: dose 0.2-20 µM
[22] = molecular target: T2, MUS81-ECE1 (Homo sapiens); experiment: Inhibition of human GST-tagged MUS81-[…] expressed in Escherichia coli BL21(DE3)Rosetta2 cells using 3' FLAP as substrate at 40 uM
[23] = molecular target: T2, MUS81-ECE1 (Homo sapiens); experiment: Inhibition of human GST-tagged MUS81-[…] expressed in Escherichia coli BL21(DE3)Rosetta2 cells using nDS as substrate at 40 uM
[24] = system: A549; experiment: Chemosensitivity of bleomycin-treated human A549 cells assessed as reduction in cell viability at 0.1 to 100 uM incubated for 24 hrs CCK-8 assay; type: functional, cell-based; details: dose 0.1-100 µM
[25] = system: A549; experiment: Chemosensitivity of cisplatin-treated human A549 cells assessed as reduction in cell viability at 0.1 to 100 uM incubated for 24 hrs CCK-8 assay; type: functional, cell-based; details: dose 0.1-100 µM

SMILES	inhibition [1]	Activity [2]	Activity [3]	Kd [4]	inhibition [5]	Activity [7]	Activity [9]	K [10]	K [15]	K [17]	K [18]	further results
O=C(N/N=C/c1cc(O)c(O)cc1O)c1cc2ccccc2cc1O	Active	inactive	inactive	0.605 µM	Active	inactive	inactive	6420 M⁻¹ s⁻¹	0.003 s⁻¹	6980 M⁻¹ s⁻¹	0.004 s⁻¹	inhibition [6]: Dose-Dependent Effect; IC50 [8]: 2.9 µM; Activity [11]: Active; inhibition [12]: Dose-Dependent Effect; Activity [13]: Active; inhibition [14]: Dose-Dependent Effect; inhibition [16]: Dose-Dependent Effect; Activity [19]: Active; inhibition [20]: Dose-Dependent Effect; inhibition [21]: Dose-Dependent Effect
O=C(N/N=C/c1ccc(O)c(O)c1)c1cc2ccccc2cc1O [DYNASORE]	inactive	inactive	inactive	4.18 µM	inactive	inactive	inactive	1390 M⁻¹ s⁻¹	0.005 s⁻¹	934 M⁻¹ s⁻¹	0.005 s⁻¹	inhibition [22]: Active; inhibition [23]: Active; Activity [24]: Active; Activity [25]: Active
